Point of comparison: `COc1cccc(OC)c1Br`, melting point 93 °C. Against it:
- CC(=O)OC1C2=C(C(=O)C(O)C3(CC3C)C2=O)C2(C)CCC(C)=C(C)C2C1O (stereo not given) — higher, 177 to 178 °C
- COC(=O)c1ccccc1CS(=O)(=O)NC(=O)Nc1nc(OC)cc(OC)n1 — higher, 187 °C
- C[C@]12CC[C@H]3[C@@H](CC=C4C[C@@H](O)CC[C@@]43C)[C@@H]1CC[C@@H]2O — higher, 178 to 182 °C
- CN=NC — lower, -78 °C
- Cc1cc([N+](=O)[O-])c(Cl)c([N+](=O)[O-])c1 — higher, 114 to 116 °C
- Nc1cnccc1I — lower, 61 °C
- O=C1CC2C(Br)CC1C2C(=O)O (stereo not given) — higher, 178 to 182 °C
- Cc1ccc(O)c2c1CCC2 — lower, 82 to 83 °C
- N#Cc1c(N)oc(-c2ccco2)c1-c1ccco1 — higher, 183 to 185 °C
- CSC(SC)=C(C#N)C#N — lower, 82 to 84 °C
- CC(=O)OC1CCC2(C)C(CCC3C4CCC(=O)C4(C)CCC32)C1 (stereo not given) — higher, 138 °C
- COc1cc(F)c(Br)cc1F — lower, 63 °C
- CC(C)(C)c1cccc2ccccc12 — lower, -11.3 °C
- COc1ccccc1-c1nnc2n1CN(C(C)C)CS2 — higher, 207 °C
- O=NN1CCCC1c1cccnc1 (stereo not given) — lower, 47 °C
- O=C(O)c1ccc(Cl)cc1Cl — higher, 164 °C
- Oc1nc(CCc2ccccc2)nn1-c1ccccc1 — higher, 182 °C
- COC(=O)C1(S(=O)(=O)c2ccccc2)CCCCC1 — higher, 114 °C
- COC(=O)C1=C(C(=O)OC)Cc2cc3c(cc2C1)CC(C(=O)OC)=C(C(=O)OC)C3 — higher, 209 °C
- CC(CCC(N)=O)n1nc2ccccc2n1 (stereo not given) — higher, 102 °C
- CCCCCCCCCCCCC#CC#CCCCCCCCCC(=O)O — lower, 64 °C
- CCOP(=O)(OCC)OC(=CCl)c1ccc(Cl)cc1Cl — lower, -20 °C
- O=C(/C=C/c1ccccc1)Oc1ccc(/C=C/C(=O)c2ccccc2)cc1 — higher, 158 °C
- O=C(O)c1sccc1Br — higher, 196 °C
- Cc1ccc2nc(C)c(C)nc2c1 — the same, 93 °C
- COc1ccc(OC(C)=O)cc1 — lower, 32 °C
- CCC1(c2ccccc2)C(=O)N(COC)C(=O)N(COC)C1=O — higher, 117 °C
- CCOc1ccccc1OS(=O)(=O)NC(=O)Nc1nc(OC)cc(OC)n1 — higher, 150 °C
- COc1ccc(Oc2ccc(C(N)=NO)cc2[N+](=O)[O-])cc1 — higher, 174 to 177 °C
- O=C1NC(=S)NC(=O)C1=NNc1ccc(C(=O)O)cc1 — higher, 340 °C
- Cc1cc(Cl)ccc1OC(C)C(=O)Nc1ccc2nc(SCc3ccccc3)sc2c1 (stereo not given) — higher, 168 °C
- C=CCCCCCCCCCCC — lower, -13 °C
- Cc1nc(-c2ccc(C(F)(F)F)cc2)sc1Br — lower, 68 to 69 °C
- CC(=O)Nc1nccs1 — higher, 204 to 208 °C
- CC(=O)c1ccc(S(=O)(=O)Cl)cc1 — lower, 84 °C
- CC12CCCC1C1CC=C3CC(O)CCC3(C)C1CC2 (stereo not given) — higher, 136 °C
- Ic1ccc(OC2CCOCC2)cc1 — lower, 88.5 to 89.5 °C
- Nc1ncnc2c1ncn2C1OC(COP(=O)(O)O)C(O)C1O (stereo not given) — higher, 213 °C
- O=C(O)CONC(=O)c1ccccc1 — higher, 140 °C
- CCC(=O)c1c(O)cc(O)cc1O — higher, 176 °C
- COc1ccc(-c2csc(/C(C#N)=N\Nc3cc(C)ccc3C)n2)cc1 — higher, 155 °C
- N#Cc1cc([N+](=O)[O-])cc([N+](=O)[O-])c1 — higher, 129 °C
- COc1cc(C2Nn3c(nnc3-c3cccc([N+](=O)[O-])c3)S2)ccc1O (stereo not given) — higher, 165 °C
- CCCCCCCCCCCCCCCCCl — lower, 17.9 °C
- C1=C(c2ccccc2)CCCC1 — lower, -11 °C
- O=C(O)CSc1ccccc1C(=O)O — higher, 218 °C
- COC(=O)c1ccc(C(=O)OC)c(Br)c1 — lower, 52 to 54 °C
- Nc1ccc(-c2ccc(N)c(N)c2)cc1N — higher, 176 °C
- Cc1cc(C)c(CCl)c(C)c1 — lower, 40 °C
- O=C(O)C(F)(F)C(F)(F)C(F)(F)C(F)(F)C(F)(F)C(F)(C(F)(F)F)C(F)(F)F — lower, 33 to 36 °C
- O=C1c2ccccc2C(=O)c2c1ccc(O)c2O — higher, 287 to 289 °C
- O=[N+]([O-])c1ccccc1/C(O)=C(/C(=N\O)c1ccccc1)c1ccccc1 — higher, 164 °C
- CC[C@H](C)[C@@H](N)C(=O)O — higher, 285 °C
- c1ccc(-c2nnc3n2NC(c2ccccc2)S3)cc1 (stereo not given) — lower, 83 °C
- NCc1ccccc1-n1cccc1 — higher, 156 to 157 °C
- CC(=O)c1ccc(Oc2ccc(Cl)cc2)cc1Cl — lower, 54 to 56 °C
- CC(=O)OCC(COC(C)=O)(COC(C)=O)COC(C)=O — lower, 83.5 °C
- O=C(c1ccc(F)cc1)c1cccs1 — higher, 97 °C
- CC(=O)c1ccc(OCCCCCBr)cc1O — lower, 63 to 66 °C
- O=C(Cl)c1ccc(Oc2ccccn2)cc1 — lower, 80 to 81 °C
- CCCCCSc1ncccc1C(=O)O — higher, 118 to 120 °C
- FC(F)(I)C(F)(F)C(F)(F)C(F)(F)I — lower, -9 °C
- O=C(CS)Nc1ccc2ccccc2c1 — higher, 112 °C
- CC(=O)NC(C)=O — lower, 79 °C
- CC1C(=O)C23C(O)CC4C(C)(C)CCC(O)C4(CO)C2C(O)CC1C3O (stereo not given) — higher, 278 °C
- O=C(O)c1cc(-c2cccs2)[nH]n1 — higher, 229 to 232 °C
- O=C1C(c2ccccc2)=C(c2ccccc2)C(c2ccccc2)=C1c1ccccc1 — higher, 217 to 222 °C
- C=C(Cl)c1ccccc1 — lower, -23 °C
- CC(=O)C1CC1 — lower, -68.3 °C
- C[C@@H](OC(C)(C)C)[C@H](NC(=O)OCC1c2ccccc2-c2ccccc21)C(=O)O — higher, 131 to 134 °C
- Cc1ccc2sc(C(=O)CBr)c(C)c2c1 — higher, 123 to 125 °C
- C1=CC=CC=CC=C1 — lower, -4.7 °C
- O=C(O)C=Cc1ccc(F)c(C(F)(F)F)c1 — higher, 143 °C
- CC(C(=O)O)c1ccc(-c2ccccc2)c(F)c1 (stereo not given) — higher, 110 °C
- O=Cc1cc(Cl)cc(Br)c1O — lower, 86 °C
- CCOC(=O)c1[nH]c(C)c(CC)c1C — lower, 87 to 88 °C
- CC(=O)Oc1nn(-c2ccccc2)cc1Br — lower, 82 to 85 °C
- c1ccc(Cn2cncn2)cc1 — lower, 49 °C
- S=c1[nH]c2ncccc2o1 — higher, 243 to 246 °C
- CCOC=C(C#N)C(=O)OCC — lower, 49.5 °C
- COC(=O)c1ccc(Br)c(C)c1 — lower, 42 °C
- Cc1nc(-c2ccc(C(=O)O)cc2)no1 — higher, 262 to 264 °C
- Nc1c(C(=O)O)sc2ncccc12 — higher, 202 to 204 °C
- CCC12CCCN(CCc3c([nH]c4ccccc34)CC1)C2 (stereo not given) — higher, 146 °C
- CCOC(C)=NOc1ccc([N+](=O)[O-])cc1[N+](=O)[O-] — higher, 112 °C
- O=C(Oc1ccccc1)c1ccc(O)cc1 — higher, 176 to 178 °C
- O=C(O)CC(Br)C(=O)O (racemic) — higher, 160 to 166 °C
- CC(SCc1ccccc1)C(=O)O (stereo not given) — lower, 79 to 81 °C
- COC(=O)C=Cc1ccc(C=CC(=O)OC)c([N+](=O)[O-])c1 — higher, 166 °C
- COc1ccc(C(=CC(=O)N2CCOCC2)c2ccc(F)cc2)cc1OC — higher, 108 °C
- Cc1ccc(-c2cc(N/N=C(/C(=O)c3cccs3)C(=O)C(F)(F)F)[nH]n2)cc1 — higher, 220 °C
- O=[N+]([O-])c1ccc(OCCN2CCOCC2)cc1 — lower, 84 to 86 °C
- O=Cc1ccc(-c2ccccc2[N+](=O)[O-])o1 — higher, 96 to 98 °C
- Cc1ccc(-c2cc(NN=c3c(C(F)(F)F)nc4ccccc4[nH]c3=O)[nH]n2)cc1 — higher, 135 °C
- Cc1ccc(O)c(N)c1 — higher, 136 °C
- c1ccc2c(c1)CCc1ccccc1CC2 — higher, 109 °C
- CC(=O)OC1CCC2C3CCC4=CC(=O)CCC4(C)C3CCC12C (stereo not given) — higher, 140 °C
- COc1cccc2cccnc12 — lower, 49.5 °C
- CCCCCCCCCCCCCCCC(=O)c1ccccc1 — lower, 59 °C
- CC(=O)c1ccccc1OCc1ccccc1 — lower, 38 to 40 °C
- CSc1ccc(C(=O)O)s1 — higher, 103 to 105 °C
- ON=C(Cc1ccccc1)C(Cc1ccccc1)=NO — higher, 193 °C
- CC1=CCC(C(=O)O)C1(C)C (stereo not given) — lower, 40.5 °C
- C#Cc1ccc(C)cc1 — lower, 21 °C
- COc1ccc(C2C(C#N)=C(N)Oc3cc(C)n(CCc4ccccc4)c(=O)c32)cc1 (stereo not given) — higher, 264 °C
- COc1ccc(NC(=O)CS)cc1 — higher, 118 to 119 °C
- Cc1ccc(C(C)C)c(C)c1 — lower, -82 °C
- C1SCSCS1 — higher, 220 °C
- O=C(O)C=CC(=O)O — higher, 295 to 300 °C
- N#Cc1ccc(C=Cc2cccc(C=Cc3ccc(C#N)cc3[N+](=O)[O-])c2)c([N+](=O)[O-])c1 — higher, 298 °C
- O=C(OCc1ccccc1)OCc1ccccc1 — lower, 29 to 33 °C
- Cc1cc(C)cc(C=O)c1 — lower, 8 to 10 °C
- Nc1ccc(Br)cc1C(=O)c1ccccc1F — higher, 100 to 104 °C
- Cc1ccccc1N/N=C(\C#N)c1nc(-c2ccccc2)cs1 — higher, 144 °C
- COC1C(O)C(O)C(O)C(O)C1O (single isomer, unassigned; (-)) — higher, 190 to 198 °C
- O=C(O)c1ccccc1C(=O)O — higher, 200 to 205 °C
- S=C=Nc1ccc(I)cc1 — lower, 76 to 78 °C
- CC(=O)Nc1cc2c(cc1/C=C/c1ccccc1)CC(c1ccccc1)N2C(C)=O (stereo not given) — higher, 272 °C
- CN1CCCN(C)C1=O — lower, -20 °C
- CC(=O)NCC1(c2ccccc2)CCN(CCCC(=O)c2ccc(F)cc2)CC1 — higher, 98.5 °C
- O=[N+]([O-])c1ccc(O)cc1C(F)(F)F — lower, 76 °C
- Cn1c(N)c(C=O)c(=O)n(C)c1=O — higher, 199 to 201 °C
- O=C(O)CCCCCC1NC(=O)CS1 (stereo not given) — higher, 140 °C
- O=[N+]([O-])c1ccccc1C(Br)C(Br)c1ccccn1 (stereo not given) — higher, 182 °C
- Nc1ccc(CC(N)C(=O)O)cc1 (racemic) — higher, 255 to 258 °C
- O=C(O)c1cccc(OOCl)c1 — lower, 92 °C
- O=Cc1ccc2cccnc2n1 — higher, 138 to 143 °C
- Oc1c(Br)cc(Br)cc1Br — higher, 95.5 °C
- COc1ccc2c(c1)N(CCCN(C)C)c1ccccc1S2 — lower, 46 °C

— a melting point compilation (Tetko et al.)
